How the values were obtained:
Aβ(1-42) aggregate [1] = target: T1, Aβ(1-42) aggregate (Homo sapiens, UniProt P05067); test: In-vitro binding inhibition experiment using Aβ(1-42) aggregate (Example 1); conditions: compound numbers of Example 1
T1 construct: Amyloid β protein (Human, 1-42) [TFA form] was purchased from Peptide Institute, Inc; purchased Peptide Institute, Inc
Description: (§1) Amyloid β protein (Human, 1-42) [TFA form] was purchased from Peptide Institute, Inc., and special grade reagents were used as other reagents. ^1H-NMR was measured using Varian Gemini 300 and tetramethylsilane as an internal standard substance.
The Aβ(1-42) aggregate was dissolved in a buffer containing 10 mM sodium phosphate and 1 mM EDTA (pH 7.4) at a concentration of 0.5 mg/mL, and the mixture was incubated at 37° C. for 36 to 42 h. The binding inhibition experiment was performed using 12×75-mm borosilicate glass tubes. 850 μL of 10% ethanol solution, 50 μL of an Aβ-binding substance ([^125I]4-dimethylamino-4′ iodochalcone) (10% aqueous ethanol), 50 μL (57 nM) of Aβ(1-42) aggregate solution, and 50 μL of 10% aqueous ethanol each containing Compounds 1 and 4 at various concentrations (0.003 to 781 nM) were mixed, and the mixture was allowed to stand at room temperature for 3 h. Further, nonspecific binding was determined using 4-dimethylamino-4′-iodochalcone (400 nM), a nonradioactive compound. Aβ aggregate-bound chalcone derivatives and nonbound chalcone derivatives were separated with a Brandel M-24R cell harvester using a Whatman GF/B filter. The radioactivities of substances remaining on the filter after filtration were measured with a γ counter. […]

Aβ(1-42) aggregate [2] = target: T1, Aβ(1-42) aggregate; test: In-vitro binding inhibition experiment using Aβ(1-42) aggregate (Reference Example 2); conditions: ligand [^125I]4-dimethylamino-4′-iodochalcone; compound numbers of Reference Example 2; read-out: Inhibition constant (Ki, nM) (mean ± SE)
Description: as §1
The Aβ(1-42) aggregate was dissolved in a buffer containing 10 mM sodium phosphate and 1 mM EDTA (pH 7.4) at a concentration of 0.5 mg/mL, and the mixture was incubated at 37° C. for 36 to 42 h. The binding inhibition experiment was performed using 12×75-mm borosilicate glass tubes. 850 μL of 10% ethanol solution, 50 μL of [^125I]4-dimethylamino-4′-iodochalcone (in 10% aqueous ethanol), 50 μL (29 nM) of an Aβ(1-42) aggregate solution, and 50 μL of a solution of fluorine-containing chalcone derivatives in 10% aqueous ethanol prepared at various concentrations were mixed, and the mixture was allowed to stand at room temperature for 3 h. Further, nonspecific binding was calculated using 4-dimethylamino-4′iodochalcone (400 nM), a nonradioactive compound. Aβ aggregate-bound chalcone derivatives and nonbound chalcone derivatives were separated with a Brandel M-24R cell harvester using Whatman GF/B filters. Radioactivities of substances remaining on the filter were measured with a γ counter. The 50% inhibitory concentrations were calculated using Graph Pad Prism (graph pad software), and inhibition constants (Ki values) were calculated by Cheng-Prusoff equation, Ki=IC50/(1+[L]/Kd). In this equation, the concentration of [^125I]4-dimethylamino-4′-iodochalcone used in the experiment was used for [L], and the dissociation constant of [^125I]4-dimethylamino-4′-iodochalcone against the Aβ(1-42) aggregate was used for Kd.

[3] = In-vivo radioactivity distribution experiment in normal mice (Reference Example 2); conditions: Reference Example 2 numbering; for Radioactivity concentration in the brain of mice: intravenous
Description: Labeled compounds, [^11C]Compounds 23 and 7, were diluted with physiological saline containing 10% ethanol. 100 μL of each of the labeled compounds was intravenously infused to five 5-week-old male ddY mice per group, the animals were decapitated at 2, 10, 30, or 60 min, blood was collected, and then weights and radioactivities thereof were measured.

Aβ(1-42) aggregate [4] = target: T1, Aβ(1-42) aggregate; test: Examination of binding site by binding inhibition experiment using Aβ(1-42) aggregate (Example 2); conditions: in words, FIG. 10
Description: Aβ(1-42) was dissolved in 10 mM phosphate buffer containing 1 mM EDTA (pH 7.4) at a concentration of 0.25 mg/mL, and the mixture was incubated at 37° C. for 42 h to prepare an Aβ(1-42) aggregate.
[…] of 10% EtOH solution, […] of [^125I]CL-NMe2 solution, […] of a solution of congo red, thioflavine T, or compound 14 at various concentrations (0 to 20 mM) were mixed, […] of an Aβ(1-42) aggregate solution was finally added, and the mixture was allowed to stand at room temperature for 3 h. Aβ(1-42) aggregate-bound compounds and nonbound compounds were separated with a Brandel M-24R cell harvester using a Whatman GF/B filter. Radioactivities remaining on the filter after filtration were measured with a γ-counter, and inhibition curves were created using Graph Pad Prism 4.0 to calculate inhibition constants.

T1 sequence (P05067 672-713 limits assumed): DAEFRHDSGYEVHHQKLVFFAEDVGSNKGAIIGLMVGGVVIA

## CN(C)c1ccc(/C=C/C(=O)c2ccc(I)s2)cc1 [Compound 1 in Example 1, (E)-3-(4-(dimethylamino)phenyl)-1-(5-iodothiophen-2-yl)prop-2-en-1-one]
Aβ(1-42) aggregate [1]; in words
  binding property to the amyloid aggregate: very strong binding property
Aβ(1-42) aggregate [1]; ligand [^125I]4-dimethylamino-4′-iodochalcone, mean and standard deviation of three experiments, read-out: Inhibition constants (Ki) for binding to Aβ(1-42) aggregate
  Ki: 5.2 ± 0.7 nM

## CN(C)c1ccc(/C=C/C(=O)c2ccc(OCCF)cc2)cc1 [Compound 3 in Reference Example 2, (E)-1-(4-(2-fluoroethoxy)phenyl)-3-(4-(dimethylamino)phenyl)prop-2-en-1-one]
Aβ(1-42) aggregate [2]
  Ki: 29 ± 2 nM

## CN(C)c1ccc(/C=C/C(=O)c2ccc(OCCOCCF)cc2)cc1 [Compound 5 in Reference Example 2, (E)-1-(4-(2-(2-fluoroethoxy)ethoxy)phenyl)-3-(4-(dimethylamino)phenyl)prop-2-en-1-one]
Aβ(1-42) aggregate [2]
  Ki: 19 ± 1 nM

## Nc1ccc(/C=C/C(=O)c2ccc(OCCF)cc2)cc1 [Compound 11 in Reference Example 2, (E)-1-(4-(2-fluoroethoxy)phenyl)-3-(4-aminophenyl)prop-2-en-1-one]
Aβ(1-42) aggregate [2]
  Ki: 553 ± 22 nM

## Nc1ccc(/C=C/C(=O)c2ccc(OCCOCCF)cc2)cc1 [Compound 16 in Reference Example 2, (E)-1-(4-(2-(2-fluoroethoxy)ethoxy)phenyl)-3-(4-aminophenyl)prop-2-en-1-one]
Aβ(1-42) aggregate [2]
  Ki: 1000 ± 29 nM

## CNc1ccc(/C=C/C(=O)c2ccc(OCCOCCF)cc2)cc1 [Compound 17 in Reference Example 2, (E)-1-(4-(2-(2-fluoroethoxy)ethoxy)phenyl)-3-(4-(methylamino)phenyl)prop-2-en-1-one]
Aβ(1-42) aggregate [2]
  Ki: 187 ± 3 nM

## CN(C)c1ccc(/C=C/C(=O)c2ccc(F)cc2)cc1 [Compound 23 in Reference Example 2, (E)-3-(4-(dimethylamino)phenyl)-1-(4-fluorophenyl) prop-en-1-one]
[3]
  ratio of brain radioactivity at 60 min to that at 2 min after administration: 28.3%
  ratio of the radioactivity remaining in the brain at 30 min after administration to that at 2 min after administration: 28.3%
[3]; 2 min after administration, listed as [^11C] 23
  Radioactivity concentration in the brain of mice: 3.68 ± 0.35 % ID/g
[3]; 2 min after administration, listed as [^11C]Compound 23
  Radioactivity concentration in the brain of mice: 3.68 % ID/g
[3]; 10 min after administration
  Radioactivity concentration in the brain of mice: 1.53 ± 0.14 % ID/g
[3]; 30 min after administration
  Radioactivity concentration in the brain of mice: 1.04 ± 0.15 % ID/g
[3]; 60 min after administration, listed as [^11C] 23
  Radioactivity concentration in the brain of mice: 1.04 ± 0.20 % ID/g
[3]; 60 min after administration, listed as [^11C]Compound 23
  Radioactivity concentration in the brain of mice: 1.04 % ID/g

## Nc1c(/N=N/c2ccc(-c3ccc(/N=N/c4cc(S(=O)(=O)O)c5ccccc5c4N)cc3)cc2)cc(S(=O)(=O)O)c2ccccc12 [congo red]
Aβ(1-42) aggregate [4]
  inhibition of binding of [^125I]CL-NMe2 to the Aβ(1-42) aggregate: did not inhibit binding of [^125I]CL-NMe2 to the Aβ(1-42) aggregate to a large extent

## Cc1ccc2c(c1)sc(-c1ccc(N(C)C)cc1)[n+]2C.[Cl-] [thioflavine T]
Aβ(1-42) aggregate [4]
  inhibition of binding of [^125I]CL-NMe2 to the Aβ(1-42) aggregate: did not inhibit binding of [^125I]CL-NMe2 to the Aβ(1-42) aggregate to a large extent
